Consider 1 compound from patent US20130158122A1, “EP2 Agonist from Non-Prostanoid Structures Designed as PGE2 Antagonists” (ALLERGAN, INC., priority 2010, published 2013).

Each structure is given as a SMILES string.

The test system of this assay is Beagle dogs. In words: Intraocular pressure studies in dogs (applanation pneumatonometry). Format: in vivo. The conditions noted are these: conscious Beagle dogs, topical to one eye, approx. 35 μl, IOP before and at 2, 4, 6 hours on each day of 5 day study; vehicle in other eye. As for the experimental part: Measurement of intraocular pressure studies in dogs will involve applanation pneumatonometry performed in Beagle dogs of both sexes. The animals will remain conscious throughout the study and will be gently restrained by hand. Compound 4-{[5-chloro-2-(4-chloro-benzyloxy)-benzoylamino]-methyl}-benzoic acid will be administered topically to one eye using a dropper bottle to deliver approximately a 35 μl volume, the other eye received vehicle (1% polysorbate 80 in 5 mM Tris HCl) as a control. Proparacaine at 0.25% was used for corneal anesthesia during tonometry. Intraocular pressure will be determined just before drug administration and at 2, 4, 6 hours thereafter on each day of the 5 day study. Measurement of ocular surface hyperemia will be performed immediately before each of the intraocular pressure readings. Ocular surface hyperemia grading will be semi-quantitative and assessed according to a 5 point scoring scale used for clinical evaluations: 0=none; 0.5=trace; 1=mild; 2=moderate; and 3=severe.

For `O=C(O)c1ccc(CNC(=O)c2cc(Cl)ccc2OCc2ccc(Cl)cc2)cc1` [4-{[5-chloro-2-(4-chloro-benzyloxy)-benzoylamino]-methyl}-benzoic acid], the intraocular pressure result was “significantly reduce intraocular pressure”.
